Assay results taken from publication PMC10037499, “High-Throughput Screen Reveals the Structure–Activity Relationship of the Antimicrobial Lasso Peptide Ubonodin” (ACS Central Science, 2023).
≈ marks a conversion by molar mass, not a printed value. Where a SMILES comes first, the peptide text is derived from it.

Assays:
E. coli MC1061 = assay: Spot dilution assay of E. coli producing the ubonodin variant from pUboABC; assay type: cell-based; details: variant in pUboABC backbone in E. coli MC1061, induction with 100 μM IPTG, ten-fold serial dilutions, biological duplicates
Summary of the method: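 E. coli MC1061 carrying the plasmids was grown at 37 °C in LB with 100 μg/mL ampicillin to OD600 0.3, then induced with 100 μM IPTG. Samples taken before induction and at later timepoints were PBS-washed, spotted as ten-fold dilutions on ampicillin/0.2% glucose LB plates, and imaged after 16 h at 37 °C.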

B. cenocepacia AU24362 = system: B. cenocepacia AU24362; design: method as in PMID 35802499; details: spot-on-lawn assay; cited from earlier work
Text: We proceeded to test the antimicrobial activity of the selected variants against two clinical isolates of the Bcc, B. cenocepacia AU0756 and B. cenocepacia AU24362, in broth microdilution assays. […] We revisited these measurements using broth microdilution assays following the Clinical & Laboratory Standards Institute (CLSI) standard.

## CC[C@H](C)[C@@H]1NC(=O)[C@H](CO)NC(=O)CNC(=O)[C@H](CC(=O)O)NC(=O)CNC(=O)CNC(=O)CC[C@@H](C(=O)N[C@@H](Cc2ccc(O)cc2)C(=O)N[C@@H](Cc2ccccc2)C(=O)N[C@@H](CC(N)=O)C(=O)N[C@@H](CCCNC(=N)N)C(=O)N2CCC[C@H]2C(=O)N[C@@H](CCSC)C(=O)N[C@@H](Cc2c[nH]cn2)C(=O)N[C@H](C(=O)N[C@@H](Cc2c[nH]cn2)C(=O)N[C@@H](CC(=O)O)C(=O)N[C@@H](Cc2c[nH]c3ccccc23)C(=O)N[C@@H](CCC(N)=O)C(=O)N[C@H](C(=O)N[C@@H](CCSC)C(=O)N[C@@H](CC(=O)O)C(=O)N[C@@H](CO)C(=O)NCC(=O)N[C@@H](Cc2ccc(O)cc2)C(=O)N[C@@H](Cc2ccc(O)cc2)C(=O)NCC(=O)O)[C@@H](C)CC)[C@@H](C)CC)NC(=O)[C@H](C)NC1=O [WT, ubonodin] (HELM PEPTIDE1{G.G.D.G.S.I.A.E.Y.F.N.R.P.M.H.I.H.D.W.Q.I.M.D.S.G.Y.Y.G}$PEPTIDE1,PEPTIDE1,1:R1-8:R3$$$V2.0; C-terminus assumed)
E. coli MC1061
  Inhibits Growth: Yes
B. cenocepacia AU24362
  MIC against strain AU24362: 20 µM (≈ 64 µg/mL)
